pIC50: −log10 of the molar value.
Assays:
[1] = system: platelet aggregation induced by PAF; assay: Inhibition of platelet aggregation induced by PAF (rabbit platelet rich plasma, Born nephelometric technique); format: cell-based, New Zealand albino rabbits; details: Oryctolagus cuniculus, concentration needed to inhibit platelet aggregation by 50%, PAF (C₁₈) 16 nM final, read-out: IC₅₀
Procedure: Inhibition of platelet aggregation induced by PAF.
The blood is obtained by cardiac puncture of male New Zealand albino rabbits (between 2 and 2.5 Kg of weight) and coagulation is prevented by adding 1 part of 3.16% sodium citrate dihydrate in 9 parts of blood. The platelet rich plasma (PRP) is prepared by blood centrifugation at 250xg for 10 min. at 4°C and it is diluted with platelet poor plasma (PPP) by additional centrifugation at 3000xg for 10 min. The amount of platelets is adjusted to […]. The platelet aggregation induced by PAF (C₁₈; prepared in our laboratory) (16 nM, final) is determined by the Born nephelometric technique (J. Physiol., 1962, 162, 67) using a aggregometer Chrono-log 500. The activities of the inhibitors are expressed as IC₅₀, that is to say the concentration of the drug needed to inhibit the platelet aggregation by 50%.

[2] = system: hypotension induced by PAF; assay: Inhibition of the hypotensive effect induced by PAF in normotense rats; format: in vivo, Sprage Dawley rats; details: anesthetized male rats; compound given through the femoral vein 3 min before PAF (0.5 mcg/Kg, i.v.); average arterial pressure
Procedure: Inhibition of the hypotensive effect induced by PAF in normotense rats.
Male Sprage Dawley rats, of 180-220 g of weight, anesthetized with sodium pentobarbital (50 mg/Kg, i.p. 1 mL/100 g) have been used. In order to measure the average arterial pressure, a polyethylene catheter is introduced into the carotid artery. The arterial pressure is recorded with the help of a transducer connected with a R611 Beckman polygraph. The tested compounds are administered through the femoral vein 3 min before the injection of PAF (0.5 mcg/Kg, i.v.).

| SMILES | pIC50 [1] | CI₅₀ [2] |
| --- | --- | --- |
| CCCCCCCCCCCCCCCCOCC1OCC(COC(=O)N(Cc2cccc[n+]2CC)C(C)=O)O1.[I-] (stereo not drawn) [Compound 7, 2-(N-Acetyl-N-(((2-hexadecyloxymethyl-1,3-dioxolan-4-yl)methoxy)carbonyl)aminomethyl)-1-ethylpyridinium iodide] | > 7.00 | <0.1 mg/Kg,i.v. |
| CCCCCCCCCCCCCCCCCC1OCC(COC(=O)N(Cc2cccc[n+]2CC)C(C)=O)O1.[I-] (stereo not drawn) [Compound 4, 2-(N-acetyl-N-(((2-heptadecyl-1,3-dioxolane-4-yl)methoxy)carbonyl)aminomethyl)-1-ethylpyridinium iodide] | 6.68 | 0.2 mg/Kg,i.v. |
| CCCCCCCCCCCCCCCCCCOCC1OCC(COC(=O)N(Cc2cccc[n+]2C)C(C)=O)O1.[I-] (stereo not drawn) [Compound 10, 2-(N-Acetyl-N-(((2-octadecyloxymethyl-1,3-dioxolan-4-yl)methoxy)carbonyl)aminomethyl)-1-methylpyridinium iodide] | 5.92 | 0.35 mg/Kg,i.v. |
| CCCCCCCCCCCCCCCCCC1OCC(COC(=O)N(Cc2cccc[n+]2C)C(C)=O)O1.[I-] (stereo not drawn) [Compound 3, 2-(N-Acetyl-N-(((2-heptadecyl-1,3-dioxolane-4-yl)methoxy)carbonyl)aminomethyl)-1-methylpyridinium iodide] | 5.66 | 0.9 mg/Kg,i.v. |

Second part, led by results:

| pIC50 [1] | SMILES | CI₅₀ [2] |
| --- | --- | --- |
| > 7.00 | CCCCCCCCCCCCCCCNC(=O)OCC1OCC(COC(=O)N(Cc2cccc[n+]2CC)C(C)=O)O1.[I-] (stereo not drawn) [Compound 14, 2(N-Acetyl-N-(((2-pentadecylcarbamoyloxymethyl-1,3-dioxolan-4-yl)methoxy)carbonyl)aminomethyl)-1-ethylpyridinium iodide] | <0.1 mg/Kg,i.v. |
| 6.80 | CCCCCCCCCCCCCCCCCCOCC1OCC(COC(=O)N(Cc2cccc[n+]2CC)C(C)=O)O1.[I-] (stereo not drawn) [Compound 11, 2(N-Acetyl-N-(((2-octadecyloxymethyl-1,3-dioxolan-4-yl)methoxy)carbonyl)aminomethyl)-1-ethylpyridinium iodide] | <0.1 mg/Kg,i.v. |

Reference: patent publication EP0388950A2, “New 1,3-dioxolan-4-yl derivatives of 2-picolylamine” (J. URIACH & CIA. S.A., priority 1989, dated 1990)
